# Measured values taken from patent US9108950B2, “1-pyrazolyl-3-(4-((2-anilinopyrimidin-4-yl)oxy)napththalen-1-yl) ureas as p38 MAP kinase inhibitors” (Respivert Ltd., priority 2011, dated 2015).
# Legend:
# [1] = test system: Differentiated U937 cells; assay: Cell viability: MTT assay; assay type: cell-based, human; details: 1 μg/mL
# Procedure: Differentiated U937 cells were pre-incubated with each test compound (final concentration 1 μg/mL or 10 μg/mL in 200 μL media indicated below) under two protocols: the first for 4 hr in 5% FCS RPMI1640 media and the second in 10% FCS RPMI1640 media for 24 h. The supernatant was replaced with new media (200 μL) and MTT stock solution (10 μL, 5 mg/mL) was added to each well. After incubation for 1 hr the media were removed, DMSO (200 μL) was added to each well and the plates were shaken lightly for 1 hr prior to reading the absorbance at 550 nm. The percentage loss of cell viability was calculated for each well relative to vehicle (0.5% DMSO) treatment. Consequently an apparent increase in cell viability for drug treatment relative to vehicle is tabulated as a negative percentage.
# [2] = test system: Cigarette Smoke Model; assay: Cigarette smoke model; assay type: in vivo, A/J mice
# Procedure: A/J mice (males, 5 weeks old) were exposed to cigarette smoke (4% cigarette smoke, diluted with air) for 30 min/day for 11 days using a Tobacco Smoke Inhalation Experiment System for small animals (Model SIS-CS; Sibata Scientific Technology, Tokyo, Japan). […] At 12 hr after the last dosing, each of the animals was anesthetized, the trachea cannulated and bronchoalveolar lavage fluid (BALF) was collected. The numbers of alveolar macrophages and neutrophils were determined by FACS analysis (EPICS® ALTRA II, Beckman Coulter, Inc., Fullerton, Calif., USA) using anti-mouse MOMA2 antibody (macrophage) or anti-mouse 7/4 antibody (neutrophil). BALF was centrifuged and the supernatant was collected. The level of keratinocyte chemoattractant (KC; CXCL1) in BALF was quantitated using a Quentikine® mouse KC ELISA kit (R&D systems, Inc., Minneapolis, Minn., USA).
# [3] = Chemical stability by HPLC; assay type: physicochemical; details: form B micronized
# Procedure: Analyses were carried out on a Waters Xbridge C18 column (3.0×150 mm; 3.5 μm) using the following operating conditions: column temperature: 40° C.; sample temperature: 5° C.; flow rate: 0.45 mL/min; injection volume: 7 μL; UV detection at 260 nm; mobile phase composition comprised of Phase A: 10 mM ammonium acetate+0.1%, v/v trifluoroacetic acid in water and Phase B: acetonitrile, using the gradient defined by the parameters below (Table 2).
# The reference and comparative samples were then analyzed by HPLC using the method described in General Procedures and by visual inspection.
structure (smiles),measurement,setting,value
"Cc1ccc(-n2nc(C(C)(C)C)cc2NC(=O)Nc2ccc(Oc3ccnc(Nc4ccccc4)n3)c3ccccc23)cc1 [Compound (I), 1-(3-(tert-Butyl)-1-(p-tolyl)-1H-pyrazol-5-yl)-3-(4-((2-(phenylamino)pyrimidin-4-yl)oxy)naphthalen-1-yl)urea]",MTT Assay Cell viability in d-U937 Cells,[1]; 4 h,"−ve (−ve and +ve indicate the value is below and above respectively, the no significant effect threshold defined as 30% inhibition at 1 μg/mL at the time point indicated.)"
same,MTT Assay Cell viability in d-U937 Cells,[1]; 24 h,"−ve (−ve and +ve indicate the value is below and above respectively, the no significant effect threshold defined as 30% inhibition at 1 μg/mL at the time point indicated.)"
same,CXCL1 in BALF % inhibition,[2]; 0.32 μg/mL,0%
same,Macrophage % inhibition,[2]; 0.32 μg/mL,11%
same,Neutrophil % inhibition,[2]; 0.32 μg/mL,12%
same,Neutrophil cell numbers in BALF,[2]; 0.32 μg/mL,12.4 ± 0.32 × 10^4/mL
same,Macrophage cell numbers in BALF,"[2]; 0.32 μg/mL intra-nasal, tobacco smoke",13.3 ± 0.20 × 10^4/mL
same,CXCL1 in BALF,"[2]; 0.32 μg/mL, tobacco smoke",13.6 ± 1.69 pg/mL
same,CXCL1 in BALF,[2]; 1.6 μg/mL,12.2 ± 0.96 pg/mL
same,CXCL1 in BALF % inhibition,[2]; 1.6 μg/mL,26%
same,Macrophage % inhibition,[2]; 1.6 μg/mL,28%
same,Macrophage cell numbers in BALF,[2]; 1.6 μg/mL,11.6 ± 0.42 × 10^4/mL
same,Neutrophil % inhibition,[2]; 1.6 μg/mL,29%
same,Neutrophil cell numbers in BALF,[2]; 1.6 μg/mL,10.5 ± 0.06 × 10^4/mL
same,CXCL1 in BALF,[2]; 8.0 μg/mL,11.4 ± 0.15 pg/mL
same,CXCL1 in BALF % inhibition,[2]; 8.0 μg/mL,41%
same,Macrophage % inhibition,[2]; 8.0 μg/mL,43%
same,Macrophage cell numbers in BALF,[2]; 8.0 μg/mL,10.1 ± 0.42 × 10^4/mL
same,Neutrophil % inhibition,[2]; 8.0 μg/mL,41%
same,Neutrophil cell numbers in BALF,[2]; 8.0 μg/mL,9.1 ± 0.28 × 10^4/mL
same,CXCL1 in BALF,[2]; 40 μg/mL,9.5 ± 0.84 pg/mL
same,CXCL1 in BALF % inhibition,[2]; 40 μg/mL,76%
same,Macrophage % inhibition,[2]; 40 μg/mL,64%
same,Macrophage cell numbers in BALF,[2]; 40 μg/mL,7.9 ± 0.20 × 10^4/mL
same,Neutrophil % inhibition,[2]; 40 μg/mL,52%
same,Neutrophil cell numbers in BALF,[2]; 40 μg/mL,7.9 ± 0.34 × 10^4/mL
same,effect on cigarette smoke induced CXCL1 (KC) production in BALF,[2]; mice,inhibited
same,effect on macrophage and neutrophil accumulation in BALF induced by cigarette smoke,[2]; mice,dose-dependent inhibition
same,chemical stability,[3],chemically stable
same,sensitivity to light,[3],some sensitivity to light was observed
same,Appearance,"[3]; 40° C./75% RH, 1 week",off-white
same,Sum of impurities by HPLC,"[3]; 40° C./75% RH, 1 week",0.66%
same,Appearance,"[3]; 40° C./75% RH, 4 weeks",off-white
same,Sum of impurities by HPLC,"[3]; 40° C./75% RH, 4 weeks",0.68%
same,Appearance,"[3]; 50° C., 1 week",off-white
same,Sum of impurities by HPLC,"[3]; 50° C., 1 week",0.69%
same,Appearance,"[3]; 50° C., 4 weeks",off-white
same,Sum of impurities by HPLC,"[3]; 50° C., 4 weeks",0.66%
same,Appearance,"[3]; 70° C./75% RH, 1 week",off-white
same,Sum of impurities by HPLC,"[3]; 70° C./75% RH, 1 week",0.73%
same,Appearance,"[3]; 80° C., 1 week",off-white
same,Sum of impurities by HPLC,"[3]; 80° C., 1 week",0.73%
same,Appearance,"[3]; 0.3 day, ICH light",off-white
same,Sum of impurities by HPLC,"[3]; 0.3 day, ICH light (700 W/m^2)",1.44%
same,Appearance,"[3]; RT/56% RH, 4 weeks",off-white
same,Sum of impurities by HPLC,"[3]; RT/56% RH, 4 weeks",0.67%
same,Appearance,"[3]; RT/75% RH, 4 weeks",off-white
same,Sum of impurities by HPLC,"[3]; RT/75% RH, 4 weeks",0.67%
same,Appearance,"[3]; RT/<5% RH, 4 weeks",off-white
same,Sum of impurities by HPLC,"[3]; RT/<5% RH, 4 weeks",0.67%
same,Appearance,[3]; T = zero,off-white
same,Sum of impurities by HPLC,[3]; T = zero,0.66%
